The values below come from patent publication US20120251495A1, “PTERIN BASED THERAPIES FOR INFLAMMATORY CONDITIONS” (priority 2008, published 2012).

Assay [1] relates to spontaneous mammary gland tumors. The note with it: C3H/HeN-MTV+ mice; Moheno, 2004; cited from earlier work.
Assay [2] concerns MDA-MB-231 human breast xenographs. The note with it: Moheno, 2004, cited from earlier work.
Assay [3] concerns IDO. Briefly: Serum tryptophan and kynurenine in HBV transgenic mice. Format: in vivo. Here is the method: (§1) Experimental design. DCP was administered per os, once daily for 14 days to randomly assigned HBV transgenic mice at 23, 7.3, and 2.3 mg/(kg d). ADV was used as a positive control at 10 mg/(kg d) using the same treatment schedule and vehicle (0.4% CMC). On day 14, mice were euthanized to collect serum and liver samples to perform liver HBV DNA, liver core and serum HBe assays, serum cytokine/chemokine profiles, and IDO metabolite assays.
Tryptophan and kynurenine measurements. Tryptophan (Trp) and kynurenine (Kyn) measurements were carried out as previously described (Widner B, Werner E R, Schennach H, Wachter H & Fuchs D. Simultaneous measurement of serum tryptophan and kynurenine by HPLC. Clin Chem 1997; 43:2424-2426). Kyn/Trp ratios were calculated for each mouse as an estimate of IDO activity.

Assay [4] relates to HBe antigen. Briefly: Sera HBeAg ELISA in HBV transgenic mice. Format: in vivo. The note with it: males. Here is the method:
as §1
Sera HBeAg. Whole blood samples were obtained during necropsy by cardiac puncture, and processed for an HBeAg-specific ELISA (International Immuno Diagnostics, Foster City Calif.) (Money J D, Motter N E, Taro B, Lay M & Fairman J. Efficacy of cationic lipid-DNA complexes (CLDC) on hepatitis B virus in transgenic mice. Antiviral Res 2008; 79:71-79). Using the known PEI (Paul Ehrlich Institute) units for the calibrator, PEI units were formulated for the serial dilutions of the positive serum. A graph was generated, and extrapolation was used to assign a PEI unit value for each sample.
For orientation: In an ELISA, binding on a coated surface is turned into a signal by an enzyme label.

Assay [5] has as its system MDA-MB-231 xenograph tumors. Briefly: Combined analysis of DCP + control mice: Day 42,43 relative tumor volume and DCP/APCP. Format: in vivo, nude mice. Here is the method: Standard ANOVA models for group effects, curve fitting, and stepwise regression analyses were carried out using SPSS Graduate Pack 15.0 for Windows (2006), with p<0.05 used to determine significance.
Table 7 gives the plasma cytokine and relative tumor volume Spearman rank order correlations for the 12 DCP+ control mice (Control [n=3; from 1st experiment]; 23 mg/(kg d) DCP [n=5; from 2nd experiment]; and 69 mg/(kg d) DCP [n=4; from 2nd experiment]).
To further determine significant causal and correlational linkages among DCP dosage, plasma cytokine changes, and relative tumor volume, the following curve fitting analyses were carried out with the 12 DCP+ control mice. First, plotting DCP versus Day 42,43 Relative Tumor Volume yielded a significant quadratic relationship (FIG. 11). Second, curve fitting each cytokine versus Day 42,43 Relative Tumor Volume found no significant linear relationship and only one significant quadratic relationship, i.e., with IL-12 (p=0.004; FIG. 12). Third, plotting DCP versus IL-12 yielded a weakly significant quadratic relationship (p=0.048; FIG. 13).
Substantially more significant analogous plots were generated by first carrying out the Table 8 stepwise regression analysis which derived the DCP antitumor plasma cytokine pattern (DCP/APCP), shown to be a more significant cytokine composite measure than IL-12 taken alone. The Table 8 stepwise regression analysis of the cytokine data from the 12 DCP+ control mice allowed for the calculation of DCP/APCP scores for each mouse. These DCP/APCP scores are plotted versus DCP dosage in […], which illustrates the significant quadratic dose-response relationships of DCP versus the derived plasma DCP/APCP composite measure. From this figure the estimated optimum dosage of DCP for maximum tumor growth inhibition is 42 mg/(kg day), while the estimated optimum dosage for maximum DCP/APCP induction is 44 mg/(kg day).

Assay [6] concerns hepatitis B virus (HBV). Briefly: Liver HBV DNA by Southern blot hybridization in HBV transgenic mice. Format: in vivo.
Source text: Animals. Homozygous adult female and male transgenic HBV mice were used (20.6±2.8 g). The mice were originally obtained from Dr. Frank Chisari (Scripps Research Institute, La Jolla, Calif.) (Guidotti L G, Matzke B, Schaller H & Chisari F V. High-level hepatitis B virus replication in transgenic mice. J Virol 1995; 69:6158-6169) and were subsequently raised in the Biosafety Level 3 (BL-3) area of the AAALAC-accredited USU Laboratory Animal Research Center (LARC). The animals were derived from founder 1.3.32 (Guidotti L G, Matzke B, Schaller H & Chisari F V. High-level hepatitis B virus replication in transgenic mice. J Virol 1995; 69:6158-6169). This study was conducted in accordance with the approval of the Institutional Animal Care and Use Committee of Utah State University.
as §1
Liver HBV DNA assays. Southern blot hybridization and quantitative PCR (qPCR) were performed on liver tissues (Morrey J D, Motter N E, Tam B, Lay M & Fairman J. Efficacy of cationic lipid-DNA complexes (CLDC) on hepatitis B virus in transgenic mice. Antiviral Res 2008; 79:71-79). For Southern blot hybridization, the ratio of the viral DNA bands to the transgene band was used to determine the concentration of viral DNA per host DNA. This calculation was based upon the knowledge that there were 1.3 copies of the transgene present per host cell with this line of transgenic mice. The transgene was used as an internal indicator to calculate the pg of HBV DNA per μg of homozygous cellular host DNA. For qPCR, the assay was run with a series of 10-fold dilutions of pooled liver DNA from HBV transgenic mice to obtain a standard curve. Mean C(t) values were obtained for duplicates of each sample. The mean C(t) values of each sample were used to obtain the log relative DNA values using a formula of the fit line of the standard curve.

The mark [7] stands for this setting: HBV mice generally, 2.3-23.0 mg/(kg day).

As to (1:4 mol:mol) calcium pterin [CaPterin], the “activity against spontaneous mammary gland tumors” value in assay [1] was “highly significant activity”. Moreover, the T/C ratio in assay [2] (7 mg/kg/day) was 41%. The “antitumor efficacy against MDA-MB-231 human breast xenographs” value in assay [2] (nude mice) is “significant antitumor efficacy”.

As to `Nc1nc([O-])c2nccnc2n1.Nc1nc([O-])c2nccnc2n1.[Ca+2]` [DCP, dipterinyl calcium pentahydrate], in assay [3] (setting [7]), the “serum Kyn” value is “did not affect” and the “serum Kyn/Trp” value is listed as “did not affect”. For the same molecule, the “serum tryptophan (Trp) versus controls” value in assay [3] (male HBV mice, 23.0 mg/(kg day)) is recorded as “significantly increased”. Also, the “HBe antigen (ELISA) versus controls” value in assay [4] (2.3 mg/(kg day)) was “significant treatment increases”. Moreover, the “HBe antigen (ELISA) versus controls” value in assay [4] (7.3 mg/(kg day)) was “significant treatment increases”. Besides, the “tumor growth inhibition relative to controls (FIG. 9)” value in assay [5] (23 mg/(kg day), Day 42,43 relative tumor volume, combined data) is “significant tumor growth inhibition”. In assay [5] (DCP/APCP), the “plasma IL-4 correlated to antitumor response” value is “increased”, the “plasma IL-6 correlated to antitumor response” value was “decreased” and the “plasma IL-12 correlated to antitumor response” value is “increased”. Moreover, in assay [5] (nude mice with MDA-MB-231 xenograph tumors), the “dose range in which antitumor response and cytokine pattern are optimized” value is on record as 40-46 mg/(kg day). For the same molecule, in assay [5] (quadratic fit, FIG. 11), the “estimated optimum dosage for maximum DCP/APCP induction” value is reported as 44 mg/(kg day) and the “estimated optimum dosage for maximum tumor growth inhibition” value was 42 mg/(kg day). Besides, in assay [6] (2.3 mg/(kg d)), the “Liver HBV DNA (Southern), Female levels (mean ± SEM)” value turned out to be 12.7 ± 1.9 pg/µg and the “Liver HBV DNA (Southern), Male levels (mean ± SEM)” value came out at 46.4 ± 10.8 pg/µg. In addition, in assay [6] (7.3 mg/(kg d)), the “Liver HBV DNA (Southern), Female levels (mean ± SEM)” value turned out to be 17.3 ± 3.5 pg/µg and the “Liver HBV DNA (Southern), Male levels (mean ± SEM)” value is 50.4 ± 10.3 pg/µg. Further, in assay [6] (23.0 mg/(kg d)), the “Liver HBV DNA (Southern), Female levels (mean ± SEM)” value turned out to be 10.6 ± 1.6 pg/µg and the “Liver HBV DNA (Southern), Male levels (mean ± SEM)” value came out at 36.0 ± 10.6 pg/µg.
